Experiments:
ThR mRNA = assay: Northern blot of ThR mRNA level in neonatal rat ventricular myocytes under normal conditions or hypoxia; assay type: cell-based
Procedure: RNA was prepared using TRI-Reagent (Molecular Research Center, Inc. Cincinnati) according to the manufacturer's instructions. […] For the detection of ThR a 250 nucleotide PCR product was used. The membrane was washed twice for 30 mins. at room temperature with 1×SSC containing 0.1% SDS and twice for 30 mins. at 55° C. with 0.1×SSC, containing 0.1% SDS. The blots were exposed for 2-4 days at −70° C. and the relative amounts of mRNA transcripts were analyzed by laser densitometry using an Ultrascan XL Enhanced Laser Densitometer and normalized relative to an internal β-actin controls.
Primary cultures of neonatal rat ventricular mycocytes were subjected to hypoxia conditions (0% oxygen, 20 torr), and the level of ThR transcripts were compared to the level of the receptor transcripts in cells under normal oxygen levels (21% oxygen). […] The 4.1 kb mRNA was detected following hybridization with full length ThR cDNA and the intensity of the bands was quantitated by densitometry and normalized to the actin transcript levels.
The level of ThR mRNA following hypoxia, in the presence of α-thrombin was also determined. For this, rat ventricular myocytes were subjected to serum free conditions and α-thrombin (5×10^−8M) was added for a period of 48 hours and the level of ThR was determined.
Therefore the effect of interruption of the signaling cascase on the protection effect was analyzed. For this, calphostin C, a protein kinase C (PKC) inhibitor was added during the activation of ThR with TRAP.

myocytes = assay: LDH activity released into the medium of normal and hypoxic myocytes; assay type: cell-based, rat; conditions: calphostin C 10 nM or 100 nM in the presence and absence of TRAP (10 μM)
Procedure: FIG. 4B. LDH levels were measured in the medium of normal (A,B,E,G) and hypoxic (C,D,F,H) myocytes. TRAP (10 μM) was added (for 48 h) to normal cells (B,E,G) or prior to subjecting the cells to hypoxia (D,F,H). Cells were treated with calphostin C at 10 nM (E,F) or 100 nM (G,H). LDH levels were determined at 340 nm.
Cell viability under hypoxia conditions was measured by lactate dehydrogenase (LDH) assay of the medium by using diagnostic kit according to the manufacturer's instructions (Sigma, St. Louis, Mo.). Released LDH is a stable enzymatic marker that correlates with cell viability. Total LDH activity was determined in culture medium plus LDH released from the cells after treatment with 0.5% Triton X-100. All results are expressed as mean±SEM of triplicate sample (I—Weiscner, M S et al., 1998. Induction of endothelial cell PAS domain protein-1 by hypoxia: characterization and comparison with hypoxia-inducible factor-1-alpha. Blood, 92(7);2260-8. II—Brooks et al., 1998. Modulation of VEGF production by pH and glucose in retinal muller cells. Curr. Eye Res., 17(9):875-882).

Substance: calphostin C
- protection of ThR transcript level under hypoxia by TRAP (ThR mRNA; hypoxia, TRAP activated ThR in the presence of calphostin C (1 nM, 100 nM)): showed no longer the protection
- level of ThR mRNA (ThR mRNA; normal conditions, calphostin C 200 nM): did not affect
- level of ThR transcripts (ThR mRNA; normal conditions, calphostin C (1 nM and 100 nM) added together with TRAP (1 μM)): did not affect
- stressed hypoxic conditions as observed by the released LDH activity (myocytes): did not affect the stressed hypoxic conditions

Source: patent US6461611B1, “Agents for the prevention of damages caused by stress conditions” (Hadasit Medical Research Services & Development Limited, priority 1998, dated 2002)
